From PMC3199943, “Screening the MayBridge Rule of 3 Fragment Library for Compounds That Interact with the Trypanosoma brucei myo-Inositol-3-Phosphate Synthase and/or Show Trypanocidal Activity” (Molecular Biology International, 2011)
Like-named read-outs stand apart in the source and are kept apart here.

How the values were obtained:
A549 cells = experiment: Cytotoxicity against A549 cells, Alamar Blue; type: cell-based; settings: for viability at 500 µM: Homo sapiens, A549, 65 h
In short: (§1)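 Viability by Alamar Blue (5 h) after ~65 h drug treatment; seeding density 2 × 10^4 cells/well in DMEM supplemented with 10% FCS and 2 mM L-Glutamine.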

HeLa cells = experiment: cells; settings: for viability at 500 µM: Homo sapiens, HeLa, 65 h
In short: as §1

[1] = Supplementary Table 1, compound 0.5 mM, percentage of controls (n=1)
[2] = read-out: HeLa Cells Alamar Blue
[3] = Supplementary Table 1, compound 0.5 mM, percentage of controls, mean ± SD (n=3) or SE (n=2)

| SMILES | viability at 500 µM (A549 cells; [1]) [%] | viability at 500 µM (HeLa cells; [2]) [%] | other results |
| --- | --- | --- | --- |
| O=C(C1CCCNC1)N1CCCC1 (stereo not drawn) [compound 468, 3‐piperidinyl(1‐pyrrolidinyl)methanone] | 80.7 | 110 ± 13.3 | – |
| O=C(C1CCNCC1)N1CCCC1 [compound 469, 4‐piperidinyl(1‐pyrrolidinyl)methanone] | 86.1 | 99.5 ± 8.7 | – |
| NC(=S)CSc1ccccc1 [compound 472, 2‐(phenylthio)ethanethioamide] | 86 | 76.5 ± 11.2 | – |
| CC(=O)Nc1ccc(Cl)cc1C [compound 473, 4‐chloro‐2‐methylacetanilide] | 76.1 | 109 ± 11.9 | – |
| Cl.Cl.NCCc1c[nH]cn1 [compound 475, 2‐(1H‐imidazol‐4‐yl)ethylamine dihydrochloride] | – | – | A549 Cells Alamar Blue (A549 cells): 80.3; HeLa Cells Alamar Blue (HeLa cells): 95.9 ± 6.6 |
| O=C1CSC(c2cccs2)C1 (stereo not drawn) [compound 482, 5‐(2‐thienyl)tetrahydrothiophen‐3‐one] | 112 | 116 ± 6.7 | – |
| OCc1ccc(-c2ccncc2)cc1 [compound 488, (4‐pyrid‐4‐ylphenyl)methanol] | 133 | 65.5 ± 17.5 | – |
| OCc1ccc(-c2cccnc2)cc1 [compound 489, (4‐pyrid‐3‐ylphenyl)methanol] | 131 | 66.4 ± 18.8 | – |
| OCc1ccc(-c2ccccn2)cc1 [compound 490, (4‐pyrid‐2‐ylphenyl)methanol] | 118 | 102 ± 13.5 | – |
| OCc1cccc(-c2ccncc2)c1 [compound 491, (3‐pyrid‐4‐ylphenyl)methanol] | 66.8 | 34.4 ± 13.8 | – |
| OCc1ccc(-c2ccccc2)nc1 [compound 492, (6‐phenyl‐3‐pyridinyl)methanol] | 81.3 | 78.6 ± 15.6 | – |
| CNCc1scc2c1OCCO2 [compound 495, N‐(2,3‐dihydrothieno[3,4‐b][1,4]dioxin‐5‐ylmethyl)‐N‐methylamine] | – | – | A549 Cells Alamar Blue (A549 cells; [1]): 96.9 percentage of controls; HeLa Cells Alamar Blue (HeLa cells; [3]): 43.6 ± 17.7 percentage of controls |
| Cc1cc(N)ccc1C(C)C.Cl [compound 497, 4‐isopropyl‐3‐methylaniline hydrochloride] | – | – | A549 Cells Alamar Blue (A549 cells; [1]): 115.7 percentage of controls; HeLa Cells Alamar Blue (HeLa cells; [3]): 90.1 ± 2.1 percentage of controls |
| Cc1cc(C(F)(F)F)c(C#N)cn1 [compound 498, 6‐methyl‐4‐(trifluoromethyl)nicotinonitrile] | – | – | A549 Cells Alamar Blue (A549 cells; [1]): 107.7 percentage of controls; HeLa Cells Alamar Blue (HeLa cells; [3]): 102.9 ± 18.5 percentage of controls |
| FC(F)(F)c1nc2ccccc2[nH]1 [compound 499, 2‐(trifluoromethyl)‐1H‐benzo[d]imidazole] | 116 | 82 ± 14.1 | – |
| N#Cc1ccc(N)cc1C(F)(F)F [compound 500, 4‐amino‐2‐(trifluoromethyl)benzonitrile] | 72.8 | 51 ± 10.6 | – |
| Oc1ccc(Oc2ccccc2)cc1 [compound 502, 4‐phenoxyphenol] | 53.1 | – | viability at 500 µM (HeLa cells; read-out: HeLa Cells Alamar Blue, Supplementary Table 1, compound 0.5 mM, percentage of controls, mean ± SD (n=3) or SE (n=2)): 39.6 ± 16.6% |
| CC(=O)c1ccc(-n2ccnc2)cc1 [compound 503, 1‐[4‐(1H‐imidazol‐1‐yl)phenyl]‐1‐ethanone] | – | – | A549 Cells Alamar Blue (A549 cells; [1]): 94.5 percentage of controls; HeLa Cells Alamar Blue (HeLa cells; [3]): 69.7 ± 7.3 percentage of controls |
| OCc1cccc(-c2cncnc2)c1 [compound 504, (3‐pyrimidin‐5‐ylphenyl)methanol] | 88.2 | 88.7 ± 9.9 | – |
| OCc1ccc(-c2cncnc2)cc1 [compound 505, (4‐pyrimidin‐5‐ylphenyl)methanol] | 85.3 | 78.6 ± 20 | – |
| Nc1ccc(Oc2ccccc2)nc1 [compound 507, 6‐phenoxy‐3‐pyridinamine] | 71.8 | 103 ± 15.4 | – |
| O=C(O)c1ccc(-n2cccc2)cc1 [compound 512, 4‐(1H‐pyrrol‐1‐yl)benzoic acid] | 63.2 | 97.5 ± 13.1 | – |
| COC(=O)c1cc2ccccc2cn1 [compound 514, methyl isoquinoline‐3‐carboxylate] | 65.3 | 79.5 ± 14.3 | – |
| COC(=O)c1ccc2ncccc2c1 [compound 515, methyl quinoline‐6‐carboxylate] | 67.8 | 69.9 ± 8.1 | – |
| N#Cc1ccc(N2CCNCC2)cc1 [compound 518, 4‐Piperazin‐1‐yl‐benzonitrile] | 84.7 | 92.1 ± 11 | – |
| NC(=O)Cc1ccc(F)cc1Cl [compound 519, 2‐(2‐chloro‐4‐fluorophenyl)acetamide] | 102 | 98.3 ± 15.4 | – |
| Cc1c(CO)cnn1-c1ccccc1 [compound 523, (5‐methyl‐1‐phenyl‐1H‐pyrazol‐4‐yl)methanol] | – | – | A549 Cells Alamar Blue (A549 cells; [1]): 57.2 percentage of controls; HeLa Cells Alamar Blue (HeLa cells; [3]): 75.9 ± 13.5 percentage of controls |
